Active and inactive are the calls of the source. No cut-off for these calls is given here.
Experiments:
Mus musculus [1] = experiment: Antithrombotic activity in mouse when administered a dose of 20 mg/kg perorally; format: functional; details: route oral
[2] = (§1) Lethal dose in mouse by administering compound intraperitoneally; format: toxicity, organism-based; details: in vivo, ip
[3] = Lethal dose in mouse was determined by administering perorally; format: toxicity, organism-based; details: in vivo, po
Cavia porcellus [4] = organism: Cavia porcellus; experiment: Inotropic activity against guinea pig spontaneously beating atria; format: functional
Rattus norvegicus [5] = experiment: Variation in heart rate when 25 mg/kg administered orally in rats; format: functional; details: route oral
Rattus norvegicus [6] = organism: Rattus norvegicus; experiment: Antihypertensive action versus dihydralazine; format: functional
Rattus norvegicus [7] = experiment: Antihypertensive activity in hypertensive rats, after peroral administration that lowered the blood pressure by 50 mmHg; value ranges from 6.52 to 14.62; format: functional; details: po
Cavia porcellus [8] = organism: Cavia porcellus; experiment: In vitro inhibitory activity of collagen (0.8 ug/mL)-induced platelet aggregation in guinea pig platelet rich plasma at a dose of 0.8 ug/mL; format: functional
Cavia porcellus [9] = organism: Cavia porcellus; experiment: In vitro inhibitory activity of thrombin (0.625 IU/mL)-induced platelet aggregation in guinea pig platelet rich plasma after 2 min; format: functional
Cavia porcellus [10] = organism: Cavia porcellus; experiment: In vitro inhibitory activity of thrombin (0.625 IU/mL)-induced platelet aggregation in guinea pig platelet rich plasma after 4 min; format: functional
Cavia porcellus [11] = organism: Cavia porcellus; experiment: In vitro irreversible inhibitory activity of adenosine diphosphate (0.5 uM)-induced platelet aggregation in guinea pig platelet rich plasma; format: functional
Cavia porcellus [12] = organism: Cavia porcellus; experiment: In vitro reversible inhibitory activity of adenosine diphosphate (0.5 uM)-induced platelet aggregation in guinea pig platelet rich plasma; format: functional
Rattus norvegicus [13] = experiment: Antihypertensive activity in hypertensive rats, after peroral administration that lowered the blood pressure by 50 mmHg; value ranges from 2.50 to 6.50; format: functional; details: po
[14] = divya_inp96 Lethal dose in mouse by administering compound intraperitoneally; format: toxicity, organism-based; details: in vivo, ip
Cavia porcellus [15] = organism: Cavia porcellus; experiment: Inhibitory activity of thrombin (0.625 IU/mL)-induced platelet aggregation in guinea pig platelet rich plasma after 2 min; format: functional
Mus musculus [16] = experiment: as §1; format: toxicity, organism-based; details: in vivo, ip
Rattus norvegicus [17] = experiment: Antihypertensive activity in hypertensive rats, after peroral administration that lowered the blood pressure by 50 mmHg; Valure ranges from 1.67 to 5.40; format: functional; details: po
Rattus norvegicus [18] = experiment: Antihypertensive activity in hypertensive rats, after peroral administration that lowered the blood pressure by 50 mmHg; format: functional; details: po
Rattus norvegicus [19] = experiment: divya_inp96 Antihypertensive activity in hypertensive rats, after peroral administration that lowered the blood pressure by 50 mmHg; format: functional; details: po
Cavia porcellus [20] = organism: Cavia porcellus; experiment: In vitro irreversible inhibitory activity of adenosine diphosphate (0.5 uM)-induced platelet aggregation in guinea pig platelet rich plasma; NA means inactive; format: functional
Cavia porcellus [21] = organism: Cavia porcellus; experiment: In vitro reversible inhibitory activity of adenosine diphosphate (0.5 uM)-induced platelet aggregation in guinea pig platelet rich plasma; NA means inactive; format: functional
Mus musculus [22] = experiment: Antithrombotic activity in mouse when administered a dose of 20 mg/kg perorally; NA means inactive; format: functional, organism-based; parameters: dose 20 mg/kg
Rattus norvegicus [23] = experiment: Antihypertensive activity in hypertensive rats, after peroral administration that lowered the blood pressure by 50 mmHg; value ranges from 3.50 to 4.80; format: functional; details: po
Rattus norvegicus [24] = experiment: Antihypertensive activity in hypertensive rats, after peroral administration that lowered the blood pressure by 50 mmHg; value ranges from 0.52 to 4.88; format: functional; details: po

Structure (SMILES)	Protection (Mus musculus [1])	LD50 [2]	LD50 [3]	pD2 (Cavia porcellus [4])	Peak effect (Rattus norvegicus [5])	Relative activity (Rattus norvegicus [6])	Inhibition (Cavia porcellus [8])	Inhibition (Cavia porcellus [9])	Inhibition (Cavia porcellus [10])	Inhibition (Cavia porcellus [11])	Inhibition (Cavia porcellus [12])	other results
CC(=O)Nc1ccc2c(c1)CCCC1CC(=O)NN=C21 (stereo not given)	46%	> 1000 mg/kg	> 1000 mg/kg									
Nc1ccc2c(c1)CC1CC(=O)NN=C21 (stereo not given)				5.05	49	0.37						ED50 (Rattus norvegicus [7]): 11 mg/kg
Nc1ccc2c(c1)CCC1CC(=O)NN=C21 (stereo not given)	73%	611 mg/kg	> 1000 mg/kg	4.93	90	1.17	21%	13%	27%	42%	10%	ED50 (Rattus norvegicus [13]): 3.5 mg/kg
Cn1c(=O)c2[nH]cnc2n(C)c1=O.Cn1c(=O)c2[nH]cnc2n(C)c1=O.NCCN [AMINOPHYLLINE]				5.91								
CC(=O)Nc1ccc2c(c1)CCC1CC(=O)NN=C21 (stereo in doubt; (-)-3c)							10%	62%	63%	76%	37%	Protection (Mus musculus [1]; 20 mg/kg): 84%
CC(=O)Oc1ccccc1C(=O)O [ASPIRIN]	44%		> 1000 mg/kg				75%		0%	100%	0%	LD50 [14]: 6500 mg/kg; Inhibition (Cavia porcellus [15]): 0%
CC(=O)Nc1ccc2c(c1)C1=NNC(=O)CC1CC2 (stereo not given)	25%	> 1000 mg/kg	> 1000 mg/kg				62%	17%	14%	6%	0%	
CC(=O)Nc1ccc2c(c1)CCC1CC(=O)NN=C21 (racemic)			> 1000 mg/kg	5.54		1.32	47%	65%	66%	92%	47%	Protection (Mus musculus [1]; 20 mg/kg): 100%; LD50 (Mus musculus [16]): 460 mg/kg; ED50 (Rattus norvegicus [17]): 3.1 mg/kg; Peak effect (Rattus norvegicus [5]; 25 mg/kg): 90
Nc1ccc2c(c1)CCCC1CC(=O)NN=C21 (stereo not given)	45%	483 mg/kg	700 mg/kg									
CC(=O)Nc1ccc2c(c1)CCc1cc(O)nnc1-2	55%	651 mg/kg	> 1000 mg/kg	5.77	50	1.14	6%	81%	86%	95%	40%	ED50 (Rattus norvegicus [18]): 3.6 mg/kg
O=C1CC2CCc3ccccc3C2=NN1 (stereo not given)	59%	450 mg/kg	666 mg/kg	4.98	70		100%	84%	97%	95%	30%	ED50 (Rattus norvegicus [18]): 23.5 mg/kg
Oc1cc2c(nn1)-c1ccccc1CC2	33%	707 mg/kg	> 1000 mg/kg	4.74	-35							ED50 (Rattus norvegicus [18]): > 25 mg/kg
N/N=c1\[nH][nH]/c(=N\N)c2ccccc12 [DIHYDRALAZINE]					68	1						ED50 (Rattus norvegicus [19]): 64.1 mg/kg
CC(=O)Nc1cccc2c1CCC1CC(=O)NN=C21 (stereo not given)		378 mg/kg	> 1000 mg/kg									inhibition (Cavia porcellus [20]): inactive; inhibition (Cavia porcellus [21]): inactive; Protection (Mus musculus [22]): inactive
CC(Cl)C(=O)Nc1ccc2c(c1)CCC1CC(=O)NN=C21 (stereo not given)	33%	> 1000 mg/kg	> 1000 mg/kg									
N#Cc1ccc2c(c1)CCC1CC(=O)NN=C21 (stereo not given)		560 mg/kg	> 1000 mg/kg									Protection (Mus musculus [22]): inactive
CC(=O)Nc1ccc2c(c1)CC1CC(=O)NN=C21 (stereo not given)				5.95	53	0.58						ED50 (Rattus norvegicus [23]): 7.1 mg/kg
CC(=O)Nc1ccc2c(c1)CCC1CC(=O)NN=C21 (single isomer, unassigned; (+))				5.65		1.95	2%	91%	100%	77%	36%	Protection (Mus musculus [1]; 20 mg/kg): 89%; LD50 (Mus musculus [16]): > 1000 mg/kg; ED50 (Rattus norvegicus [24]): 2.1 mg/kg; Peak effect (Rattus norvegicus [5]; 25 mg/kg): 55

From ChEMBL document CHEMBL1124348, “Synthesis and biological evaluation of substituted benzo[h]cinnolinones and 3H-benzo[6,7]cyclohepta[1,2-c]pyridazinones: higher homologues of the antihypertensive and antithrombotic 5H-indeno[1,2-c]pyridazinones” (J Med Chem, 1989)
